Tests used:
human AT1 receptor = target: T1, human AT1 receptor (Homo sapiens, UniProt P30556); test: AT1 receptor antagonistic activity: [125I]-angiotensin II binding assay on human AT1 receptor-expressing CHO-K1 cellular membrane fraction; settings: 22.5 pM [125I]-angiotensin II, 1 hr room temperature
T1 construct: expressed in transfected cells; membrane fraction
T1 sequence (P30556 1-359): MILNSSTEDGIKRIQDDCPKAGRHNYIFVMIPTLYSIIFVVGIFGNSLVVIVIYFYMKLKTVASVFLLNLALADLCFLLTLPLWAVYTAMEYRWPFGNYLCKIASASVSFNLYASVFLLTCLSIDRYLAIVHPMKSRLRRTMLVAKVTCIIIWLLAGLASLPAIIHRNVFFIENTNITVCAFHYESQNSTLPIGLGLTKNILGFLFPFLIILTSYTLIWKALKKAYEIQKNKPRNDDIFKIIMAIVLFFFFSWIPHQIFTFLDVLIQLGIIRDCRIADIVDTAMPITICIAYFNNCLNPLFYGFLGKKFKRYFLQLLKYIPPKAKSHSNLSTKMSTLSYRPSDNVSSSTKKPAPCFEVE
Outline: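 Competition binding used radiolabelled angiotensin II on stably transfected CHO-K1 membrane fractions in Tris pH 7.4/MgCl2 buffer, optionally containing 0.3 mg/mL fatty acid-free BSA, 1 hr at room temperature. Filtration onto GF/C separated bound tracer, and nonspecific binding was measured with candesartan.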

human PPARγ = target: T2, human PPARγ (Homo sapiens, UniProt P37231); test: PPARγ agonistic activity: luciferase reporter assay in PPARγ:RXRα:4ERPP/CHO-K1 cells; assay type: cell-based; settings: CHO-K1, test compound 10^−6 M; luciferase activity of control compound X (1 μM) = 100%, non-administration group = 0%
T2 construct: expressed in transfected cells
T2 sequence (P37231 1-477 isoform P37231-2): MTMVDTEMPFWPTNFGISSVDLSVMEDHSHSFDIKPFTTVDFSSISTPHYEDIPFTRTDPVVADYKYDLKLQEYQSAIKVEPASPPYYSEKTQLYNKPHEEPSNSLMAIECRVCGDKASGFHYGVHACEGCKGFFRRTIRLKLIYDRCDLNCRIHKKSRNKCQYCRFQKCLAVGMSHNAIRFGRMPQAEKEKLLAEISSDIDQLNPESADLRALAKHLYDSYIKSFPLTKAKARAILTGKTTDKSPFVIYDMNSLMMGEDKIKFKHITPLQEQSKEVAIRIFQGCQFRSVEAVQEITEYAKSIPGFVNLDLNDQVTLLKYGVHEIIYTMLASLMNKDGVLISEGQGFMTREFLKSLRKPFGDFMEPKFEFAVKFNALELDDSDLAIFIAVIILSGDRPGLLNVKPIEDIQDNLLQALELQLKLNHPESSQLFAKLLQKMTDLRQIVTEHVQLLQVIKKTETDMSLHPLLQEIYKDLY
T2 sequence (P19793 1-462 partner): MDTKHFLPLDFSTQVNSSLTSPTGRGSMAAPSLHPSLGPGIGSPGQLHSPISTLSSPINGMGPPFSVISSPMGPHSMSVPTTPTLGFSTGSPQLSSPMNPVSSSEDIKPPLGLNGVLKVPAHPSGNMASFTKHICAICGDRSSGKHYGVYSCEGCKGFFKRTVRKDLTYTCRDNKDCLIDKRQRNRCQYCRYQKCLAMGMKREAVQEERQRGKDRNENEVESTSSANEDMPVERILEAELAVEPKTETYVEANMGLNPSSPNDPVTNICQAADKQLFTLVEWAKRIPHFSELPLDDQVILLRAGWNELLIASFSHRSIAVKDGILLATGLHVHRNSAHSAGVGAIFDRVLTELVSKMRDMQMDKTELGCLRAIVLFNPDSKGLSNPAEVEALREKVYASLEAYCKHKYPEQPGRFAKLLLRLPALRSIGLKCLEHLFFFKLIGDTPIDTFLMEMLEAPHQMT
Outline: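 Activity is expressed relative to untreated cells (0%) and 1 μM reference compound X (100%), from luciferase luminescence. Reporter line: PPARγ:RXRα:4ERPP/CHO-K1, exposed to compound for one day at 37 °C in F12 medium containing 0.1% fatty-acid-free BSA.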

IC50 (human AT1 receptor) | activation at 1 µM (human PPARγ) | Compound
3.1 nM | 39% | CCCc1c(Cc2ccc(-c3ccccc3-c3noc(=O)[nH]3)cc2)c(=O)n(C2CCC3(CC2)OCCCO3)c2ncnn12 [Example 286, 4-(1,5-dioxaspiro[5.5]undec-9-yl)-6-{[2′-(5-oxo-4,5-dihydro-1,2,4-oxadiazol-3-yl)biphenyl-4-yl]methyl}-7-propyl[1,2,4]triazolo[1,5-a]pyrimidin-5(4H)-one]
2.7 nM | 26% | CCCc1c(Cc2ccc(-c3ccccc3-c3noc(=O)[nH]3)cc2)c(=O)n([C@H]2CC[C@]3(CC2)CC(C)=NO3)c2ncnn12 [Example 204, 4-[(5R,8R)-3-methyl-1-oxa-2-azaspiro[4.5]dec-2-en-8-yl]-6-{[2′-(5-oxo-4,5-dihydro-1,2,4-oxadiazol-3-yl)biphenyl-4-yl]methyl}-7-propyl[1,2,4]triazolo[1,5-a]pyrimidin-5(4H)-one]
1.5 nM | 20% | CCCc1c(Cc2ccc(-c3ccccc3-c3noc(=O)[nH]3)cc2F)c(=O)n(C2CCSCC2)c2nc(C)nn12 [Example 113, 6-{[3-fluoro-2′-(5-oxo-4,5-dihydro-1,2,4-oxadiazol-3-yl)biphenyl-4-yl]methyl}-2-methyl-7-propyl-4-(tetrahydro-2H-thiopyran-4-yl)[1,2,4]triazolo[1,5-a]pyrimidin-5(4H)-one]
1.9 nM | 41% | CCCc1c(Cc2ccc(-c3ccccc3-c3noc(=O)[nH]3)cc2)c(=O)n(C2CCC3(CC2)OCC(C)(C)O3)c2ncnn12 (stereo not drawn) [Example 179, 4-(2,2-dimethyl-1,4-dioxaspiro[4.5]dec-8-yl)-6-{[2′-(5-oxo-4,5-dihydro-1,2,4-oxadiazol-3-yl)biphenyl-4-yl]methyl}-7-propyl[1,2,4]triazolo[1,5-a]pyrimidin-5(4H)-one]
1.7 nM | 6% | CCCCc1c(Cc2ccc(-c3ccccc3-c3noc(=O)[nH]3)cc2)c(=O)n([C@H]2C[C@@H](C)O[C@@H](C)C2)c2ncnn12 [Example 139, 7-butyl-4-[(2R,4r,6S)-2,6-dimethyltetrahydro-2H-pyran-4-yl]-6-{[2′-(5-oxo-4,5-dihydro-1,2,4-oxadiazol-3-yl)biphenyl-4-yl]methyl}[1,2,4]triazolo[1,5-a]pyrimidin-5(4H)-one]
0.9 nM | 26% | CCCCc1c(Cc2ccc(-c3ccccc3-c3noc(=O)[nH]3)cc2F)c(=O)n(C2CCOCC2)c2nc(C)nn12 [Example 135, 7-butyl-6-{[3-fluoro-2′-(5-oxo-4,5-dihydro-1,2,4-oxadiazol-3-yl)biphenyl-4-yl]methyl}-2-methyl-4-(tetrahydro-2H-pyran-4-yl)[1,2,4]triazolo[1,5-a]pyrimidin-5(4H)-one]
1.4 nM | 20% | CCCc1c(Cc2ccc(-c3ccccc3-c3noc(=O)[nH]3)cc2)c(=O)n([C@H]2CC[C@H](OCC(O)C(F)F)CC2)c2ncnn12 (stereo partly drawn) [Example 352, 4-[trans-4-(3,3-difluoro-2-hydroxypropoxy)cyclohexyl]-6-{[2′-(5-oxo-4,5-dihydro-1,2,4-oxadiazol-3-yl)biphenyl-4-yl]methyl}-7-propyl[1,2,4]triazolo[1,5-a]pyrimidin-5(4H)-one]
2.5 nM | 19% | CCCc1c(Cc2ccc(-c3ccccc3-c3noc(=O)[nH]3)cc2)c(=O)n(C2CCC(=NOC3CCOCC3)CC2)c2ncnn12 (stereo not drawn) [Example 195, 6-{[2′-(5-oxo-4,5-dihydro-1,2,4-oxadiazol-3-yl)biphenyl-4-yl]methyl}-7-propyl-4-{4-[(tetrahydro-2H-pyran-4-yloxy)imino]cyclohexyl}[1,2,4]triazolo[1,5-a]pyrimidin-5(4H)-one]
2.4 nM | 40% | CCCc1c(Cc2ccc(-c3ccccc3-c3noc(=O)[nH]3)cc2F)c(=O)n([C@H]2CC[C@H](OCC3(O)CCC3)CC2)c2ncnn12 [Example 252, 6-{[3-fluoro-2′-(5-oxo-4,5-dihydro-1,2,4-oxadiazol-3-yl)biphenyl-4-yl]methyl}-4-{trans-4-[(1-hydroxycyclobutyl)methoxy]cyclohexyl}-7-propyl[1,2,4]triazolo[1,5-a]pyrimidin-5(4H)-one]
